Laboratory results taken from US8962608B2, “Cycloalkylnitrile pyrazole carboxamides as janus kinase inhibitors” (Merck Sharp & Dohme Corp., priority 2011, dated 2015).

What follows are molecules tested against JAK2 (recombinant purified GST-tagged catalytic domain) (Homo sapiens (Human), UniProt O60674) (assay: biochemical).
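Also: biochemical JAK kinase assay with HTRF detection.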

JAK2 (recombinant purified GST-tagged catalytic domain), sequence (O60674 849-1124): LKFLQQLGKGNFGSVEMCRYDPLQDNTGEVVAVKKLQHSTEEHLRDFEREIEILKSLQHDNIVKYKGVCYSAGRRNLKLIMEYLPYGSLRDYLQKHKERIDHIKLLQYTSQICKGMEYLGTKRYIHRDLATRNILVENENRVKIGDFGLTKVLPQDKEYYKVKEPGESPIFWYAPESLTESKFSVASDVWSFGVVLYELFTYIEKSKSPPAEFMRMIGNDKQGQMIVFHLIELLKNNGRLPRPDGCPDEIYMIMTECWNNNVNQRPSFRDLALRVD

Row | SMILES | IC50
1 | Cc1cc(Nc2nn([C@H]3CCCC[C@@H]3C#N)cc2C(N)=O)cnc1C#N (single isomer, unassigned) [Example 17-77, 1-[(1R,2R or 1S,2S)-2-cyanocyclohexyl]-3-[(6-cyano-5-methylpyridin-3-yl)amino]-1H-pyrazole-4-carboxamide] | 18 nM
2 | CN([C@H]1CCC(n2cc(C(N)=O)c(Nc3ccc(Cl)cc3)n2)[C@@H](C#N)C1)C1(C)COC1 (single isomer, unassigned) [Example 28-232, 3-[(4-chlorophenyl)amino]-1-{(1S,2S,4S or 1R,2R,4R)-2-cyano-4-[methyl(3-methyloxetan-3-yl)amino]cyclohexyl}-1H-pyrazole-4-carboxamide] | 7 nM
3 | C[C@H](N[C@H]1CC[C@H](n2cc(C(N)=O)c(Nc3ccc(S(=O)(=O)C(F)(F)F)cc3)n2)[C@@H](C#N)C1)C1CC1 (single isomer, unassigned) [Example 28-184, 1-{(1S,2S,4S or 1R,2R,4R)-2-cyano-4-[(1-cyclopropylethyl)amino]cyclo-hexyl}-3-({4-[(trifluoromethyl)sulfonyl]phen-yl}amino)-1H-pyrazole-4-carboxamide] | 23 nM
4 | N#C[C@H]1CCCC[C@@H]1n1cc(C(N)=O)c(Nc2ccc(F)c(Cl)c2)n1 (racemic) [Example 17-58, 3-[(3-chloro-4-fluorophenyl)amino]-1-[(1S,2S and 1R,2R)-2-cyanocyclohexyl]-1H-pyrazole-4-carboxamide] | 42 nM
5 | CC1(C)CN([C@H]2CC[C@H](n3cc(C(N)=O)c(Nc4ccc([C@H](O)C(F)(F)F)cc4)n3)[C@@H](C#N)C2)C1 (single isomer, unassigned) [Example 28-93, 1-[(1S,2S,4S or 1R,2R,4R)-2-cyano-4-(3,3-dimethylazetidin-1-yl)cyclohexyl]-3-({4-[(1S or 1R)-2,2,2-trifluoro-1-hydroxyethyl]phenyl}amino)-1H-pyrazole-4-carboxamide] | 5 nM
6 | CC1(C)CN([C@H]2CC[C@H](n3cc(C(N)=O)c(Nc4ccc(Cl)cc4)n3)[C@@H](C#N)C2)C1 (single isomer, unassigned) [Example 28-144, 3-[(4-chlorophenyl)amino]-1-[(1S,2S,4S or 1R,2R,4R)-2-cyano-4-(3,3-dimethylazetidin-1-yl)cyclohexyl]-1H-pyrazole-4-carboxamide] | 21 nM
7 | CC1(N[C@H]2CCC(n3cc(C(N)=O)c(Nc4ccc(Cl)cc4)n3)[C@@H](C#N)C2)CCOCC1 (single isomer, unassigned) [Example 28-235, 3-[(4-chlorophenyl)amino]-1-{(1S,2S,4S or 1R,2R,4R)-2-cyano-4-[(4-methyltetrahydro-2H-pyran-4-yl)amino]cyclohexyl}-1H-pyrazole-4-carboxamide] | 25 nM
8 | CN(C)[C@@H]1CC[C@@H](n2cc(C(N)=O)c(Nc3ccc(C(F)(F)F)nc3)n2)[C@H](C#N)C1 (single isomer, unassigned) [Example 28-18, 1-[(1R,2R,4R or 1S,2S,4S)-2-cyano-4-(dimethylamino)cyclohexyl]-3-{[6-(trifluoromethyl)pyridin-3-yl]amino}-1H-pyrazole-4-carboxamide] | 400 nM
9 | N#C[C@H]1C[C@@H](N2CC3(CCC3)C2)CC[C@@H]1n1cc(C(N)=O)c(Nc2ccccc2)n1 (single isomer, unassigned) [Example 28-136, 1-[(1S,2S,4S or 1R,2R,4R)-4-(2-azaspiro[3.3]hept-2-yl)-2-cyanocyclohexyl]-3-(phenylamino)-1H-pyrazole-4-carboxamide] | 61 nM
10 | N#C[C@H]1C[C@@H](C(=O)NC2CCC2)CC[C@@H]1n1cc(C(N)=O)c(Nc2ccc(Cl)cc2)n1 (single isomer, unassigned) [Example 35-12, 3-[(4-chlorophenyl)amino]-1-[(1S,2S,4S or 1R,2R,4R)-2-cyano-4-(cyclobutylcarbamoyl)cyclohexyl]-1H-pyrazole-4-carboxamide] | 103 nM
11 | CN(C)[C@H]1CC[C@H](n2cc(C(N)=O)c(Nc3ccc(C(F)(F)F)cc3)n2)[C@@H](C#N)C1 (single isomer, unassigned) [Example 28-188, 1-[(1S,2S,4S or 1R,2R,4R)-2-cyano-4-(dimethylamino)cyclohexyl]-3-{[4-(trifluoromethyl)phenyl]amino}-1H-pyrazole-4-carboxamide] | 14 nM
12 | C[C@H](N[C@@H]1CC[C@H](n2cc(C(N)=O)c(Nc3ccc(C(F)(F)F)nc3)n2)[C@@H](C#N)C1)C1CC1 (single isomer, unassigned) [Example 28-19, 1-[(1S,2S,4R or 1R,2R,4S)-2-cyano-4-{[(1S)-1-cyclopropylethyl]amino}cyclo-hexyl]-3-{[6-(trifluoromethyl)pyridin-3-yl]amino}-1H-pyrazole-4-carboxamide] | 675 nM
13 | CC(C)(C)OC(=O)N[C@@H]1CC[C@H](C#N)C(n2cc(C(N)=O)c(Nc3ccc(F)cc3)n2)C1 (single isomer, unassigned) [Example 44-2, tert-Butyl[(1R,3S,4S or 1S,3R,4R)-3-{4-carbamoyl-3-[(4-fluorophenyl)amino]-1H-pyrazol-1-yl}-4-cyanocyclohexyl]carbamate] | 990 nM
14 | CC(C)(c1ccc(Nc2nn([C@H]3CCCC[C@@H]3C#N)cc2C(N)=O)cc1F)[C@H](O)C(F)(F)F (single isomer, unassigned) [Example 17-32, 1-[(1S,2S or 1R,2R)-2-cyanocyclohexyl]-3-({3-fluoro-4-[(2S or 2R)-3,3,3-trifluoro-2-hydroxy-1,1-dimethylpropyl]phenyl}amino)-1H-pyrazole-4-carboxamide] | 11 nM
15 | CC(N[C@H]1CC[C@H](n2cc(C(N)=O)c(Nc3ccc(S(=O)(=O)C(F)(F)F)cc3)n2)[C@@H](C#N)C1)C1CC1 (single isomer, unassigned) [Example 28-176, 1-[(1S,2S,4S or 1R,2R,4R)-2-cyano-4-{[(1R)-1-cyclopropylethyl]amino}cyclo-hexyl]-3-({4-[(trifluoromethyl)sulfonyl]phen-yl}amino)-1H-pyrazole-4-carboxamide] | 11 nM
16 | N#C[C@H]1C[C@@H](NC2CC2)CC[C@@H]1n1cc(C(N)=O)c(Nc2ccc(C(F)(F)F)cc2)n1 (single isomer, unassigned) [Example 28-137, 1-[(1S,2S,4S or 1R,2R,4R)-2-cyano-4-(cyclopropylamino)cyclohexyl]-3-{[4-(trifluoromethyl)phenyl]amino}-1H-pyrazole-4-carboxamide] | 22 nM
17 | CC1(CN[C@H]2CC[C@H](n3cc(C(N)=O)c(Nc4ccc(C(F)(F)F)cc4)n3)[C@@H](C#N)C2)COC1 (single isomer, unassigned) [Example 28-26, 1-[(1S,2S,4S or 1R,2R,4R)-2-cyano-4-{[(3-methyloxetan-3-yl)methyl]amino}cyclohexyl]-3-{[4-(trifluoromethyl)phenyl]amino}-1H-pyrazole-4-carboxamide] | 35 nM
18 | N#C[C@@H]1CCCC[C@H]1n1cc(C(N)=O)c(Nc2ccc(S(=O)(=O)C(F)F)cc2)n1 (single isomer, unassigned) [Example 43-5, 1-[(1S,2S or 1R,2R)-2-cyanocyclohexyl]-3-({4-[(difluoromethyl)sulfonyl]phenyl}amino)-1H-pyrazole-4-carboxamide] | 28 nM
19 | N#C[C@H]1C[C@@H](N2CCC2)CC[C@@H]1n1cc(C(N)=O)c(Nc2ccc([C@H](O)C(F)(F)F)cc2)n1 (single isomer, unassigned) [Example 28-47, 1-[(1S,2S,4S or 1R,2R,4R)-4-azetidin-1-yl-2-cyanocyclohexyl]-3-({4-[(1S or 1R)-2,2,2-trifluoro-1-hydroxyethyl]phenyl}amino)-1H-pyrazole-4-carboxamide] | 11 nM
20 | N#C[C@H]1CCCC[C@@H]1n1cc(C(N)=O)c(Nc2cnc3cc(Cl)ccc3c2)n1 (single isomer, unassigned) [Example 17-61, 3-[(7-chloroquinolin-3-yl)amino]-1-[(1S,2S or 1R,2R)-2-cyanocyclohexyl]-1H-pyrazole-4-carboxamide] | 21 nM
21 | CN(C(C1CC1)C1CC1)[C@H]1CC[C@H](n2cc(C(N)=O)c(Nc3ccc(S(=O)(=O)C(F)(F)F)cc3)n2)[C@@H](C#N)C1 (single isomer, unassigned) [Example 28-178, 1-{(1S,2S,4S or 1R,2R,4R)-2-cyano-4-[(dicyclopropyl-methyl)(methyl)amino]cyclo-hexyl}-3-({4-[(trifluoromethyl)sulfonyl]phen-yl}amino)-1H-pyrazole-4-carboxamide] | 2 nM
22 | N#C[C@H]1C[C@H](O)CC[C@@H]1n1cc(C(N)=O)c(Nc2ccc(Cl)nc2)n1 (single isomer, unassigned) [Example 25-12, 3-[(6-chloropyridin-3-yl)amino]-1-[(1S,2S,4R or 1R,2R,4S)-2-cyano-4-hydroxycyclohexyl]-1H-pyrazole-4-carboxamide] | 20 nM
23 | N#C[C@H]1C[C@@H](NCC(F)F)CC[C@@H]1n1cc(C(N)=O)c(Nc2ccc(S(=O)(=O)C(F)(F)F)cc2)n1 (single isomer, unassigned) [Example 28-165, 1-{(1S,2S,4S or 1R,2R,4R)-2-cyano-4-[(2,2-difluoroethyl)amino]cyclohexyl}-3-({4-[(trifluoro-methyl)sulfonyl]phenyl}amino)-1H-pyrazole-4-carboxamide] | 4 nM
24 | CN(C)[C@H]1CC[C@H](n2cc(C(N)=O)c(Nc3ccc(C(F)(F)F)nc3)n2)[C@@H](C#N)C1 (single isomer, unassigned) [Example 28-22, 1-[(1S,2S,4S or 1R,2R,4R)-2-cyano-4-(dimethylamino)cyclohexyl]-3-{[6-(trifluoromethyl)pyridin-3-yl]amino}-1H-pyrazole-4-carboxamide] | 145 nM
25 | CC(C)(N[C@H]1CCC(n2cc(C(N)=O)c(Nc3ccccc3)n2)[C@@H](C#N)C1)C1CC1 (single isomer, unassigned) [Example 28-214, 1-{(1S,2S,4S or 1R,2R,4R)-2-cyano-4-[(1-cyclopropyl-1-methylethyl)amino]cyclohexyl}-3-(phenylamino)-1H-pyrazole-4-carboxamide] | 38 nM
26 | N#C[C@H]1C[C@@H](N2CCC2)CC[C@@H]1n1cc(C(N)=O)c(Nc2ccc(C=O)cc2)n1 (single isomer, unassigned) [Example 28-66, 1-[(1S,2S,4S or 1R,2R,4R)-4-azetidin-1-yl-2-cyanocyclohexyl]-3-[(4-formylphenyl)amino]-1H-pyrazole-4-carboxamide] | 16 nM
